Assays:
MDA‐MB‐231 cells = assay: Cell growth inhibition assay (Crystal Violet); format: cell-based, human; conditions: MDA‐MB‐231 metastatic breast adenocarcinoma cells, 96 h incubation, mean ± SD of three independent experiments
Method: (§1) The capability of the gold(III) complexes Au1‐5, the gold(I)‐phosphine derivatives AuP1‐5, and the gold(I)‐carbene counterparts AuC1‐5 to inhibit cell proliferation was assayed on three human tumor cell lines, namely, colorectal adenocarcinoma (HT‐29), metastatic breast adenocarcinoma (MDA‐MB‐231), and breast adenocarcinoma (MCF‐7) cells, whereas human non‐malignant kidney epithelial (RC‐124) cells were used as non‐tumor reference cell line. […]
(§2) high-glucose Dulbecco’s Modified Eagle’s Medium (4.5 g L-1 D-glucose, 4 mM L-glutamine, 1 mM sodium pyruvate, 1.5 g L-1 sodium bicarbonate; Life Technologies). […]
(§3) Cells were cultured at 37°C in 5% CO2 and moisture-enriched atmosphere in the respective medium […]
(§4) (Biochrom) and passaged once a week. […]
(§5) Cell growth inhibition assay
(§6) Stock solutions of the gold(III) complexes Au1-5, and the gold(I) complexes AuP1-5 and AuC1-5 in DMF were freshly prepared and subsequently diluted with the appropriate complete cell culture medium […]
(§7) The in vitro antiproliferative activity of the various gold complexes was determined following a modified protocol previously reported.[68] 100 µL of HT-29 cells (2.5×10^3 cells mL-1), MDA-MB-231 cells […]
(§8) in 96-well cell culture plates and incubated at 37°C in 5% CO2 humidified atmosphere (note: for RC-124, pre-treated plates were used as mentioned above). After 72 h (MDA-MB-231, MCF-7, RC-124) or 48 h (HT-29), cells were treated with the test compounds at different concentrations (0.01-50 µM) and incubated for further 72 h (HT-29) or 96 h (MDA-MB-231, MCF-7, RC-124) at 37°C. The medium was then discarded, cells were washed with fresh PBS solution and harvested, and the Crystal Violet (Sigma-Aldrich/Merck) staining assay was performed to determine cell viability. The inhibition of cell growth induced by the tested compounds was assessed by measuring the absorbance of each well at 590 nm using a Victor X4 microplate reader (Perkin Elmer). Antiproliferative data are expressed as IC50 values, that is, the concentration (μM) of the test agent inhibiting cell proliferation by 50% compared with untreated […]
(§9) control cultures. […]

MCF‐7 cells [1] = assay: Cell growth inhibition assay (Crystal Violet); format: cell-based, human; conditions: MCF‐7 breast adenocarcinoma cells, 96 h incubation, mean ± SD of three independent experiments
Method: as §1, §2, §3, §4, §5, §6, §7, §8, §9

HT‐29 cells = assay: Cell growth inhibition assay (Crystal Violet); format: cell-based, human; conditions: HT‐29 colorectal adenocarcinoma cells, 72 h incubation, mean ± SD of three independent experiments
Method: as §1, §2, §3, §4, §5, §6, §7, §8, §9

RC‐124 cells = assay: Cell growth inhibition assay (Crystal Violet), non-tumor reference; format: cell-based, human; conditions: RC‐124 non‐malignant kidney epithelial cells, 96 h incubation, mean ± SD of three independent experiments
Method: as §1
Human non-malignant kidney epithelial (RC-124) cells were maintained in McCoy’s 5A Medium (modified to contain 1.5 mM L-glutamine and 2.2 g L-1 sodium bicarbonate; Life Technologies).
as §3
(Biochrom) and passaged once a week.
For experiments involving RC-124 cells, microtiter plates were pre-treated as follows. 30 µL of a 1.5% m/v sterilized gelatine solution were added to each well of flat-bottomed 96-well plates, plates were covered with their lids and incubated for 1 h at 37°C. The excess solution was then removed, wells were washed with PBS solution (pH 7.4), and new cell culture medium was added.
as §5, §6, §7, §8, §9

MCF‐7 cells [2] = assay: Cellular uptake of gold (HR‐CS AAS); format: cell-based, human; conditions: 10 μM, 6 h
Method: It is often assumed that the antiproliferative activity of gold complexes is strongly linked to the efficiency of their cellular uptake and internalization. Moreover, glycoconjugates are commonly believed to enter cells through GLUTs, which, as discussed earlier, are generally over‐expressed in several cancer cells. In particular, GLUT1 is crucial for the uptake of glucose by breast cancer cells, including MDA‐MB‐231 and MCF‐7.^[ [70] ^] […] The gold levels were determined by high‐resolution continuum‐source atomic absorption spectroscopy (HR‐CS AAS) after exposure to 10 μM concentration of the selected compounds over 6 h using either a high‐glucose‐contents or glucose‐free cell culture medium. […]
(§10) The in vitro antiproliferative activity of the various gold complexes was determined following a modified protocol previously reported.[68] […]
in 96-well cell culture plates and incubated at 37°C in 5% CO2 humidified atmosphere (note: for RC-124, pre-treated plates were used as mentioned above). […] The inhibition of cell growth induced by the tested compounds was assessed by measuring the absorbance of each well at 590 nm using a Victor X4 microplate reader (Perkin Elmer). […] Results were calculated as the mean values ± standard deviation (SD) of three […]

[3] = test system: HT‐29, MDA‐MB‐231 and MCF‐7 cells; assay: Cell growth inhibition, stated over all tested tumor cell lines; format: cell-based, human; conditions: HT‐29, MDA‐MB‐231, MCF‐7
Method: as §1, §2, §3, §4
Cell growth inhibition assay […]
as §10
in 96-well cell culture plates and incubated at 37°C in 5% CO2 humidified atmosphere (note: for RC-124, pre-treated plates were used as mentioned above). […] The inhibition of cell growth induced by the tested compounds was assessed by measuring the absorbance of each well at 590 nm using a Victor X4 microplate reader (Perkin Elmer). […]

[4] = Stability in PBS by UV–Vis; format: physicochemical; conditions: PBS pH 7.4, 37°C, 25 μM, UV–Vis over time
Method: DMSO and DMF are solvents commonly used to prepare stock solutions of metal complexes prior to performing biological studies, especially if poorly soluble in aqueous media. […] However, to mimic a physiological‐like environment, stability studies in phosphate‐buffered saline (PBS) solution at pH 7.4 and 37°C were carried out for the various gold complexes by UV–Vis spectrophotometry.

SMILES | IC50 (MDA‐MB‐231 cells) [µM] | IC50 (MCF‐7 cells [1]) [µM] | IC50 (HT‐29 cells) [µM] | IC50 (RC‐124 cells) [µM] | Gold content (intracellular gold) (MCF‐7 cells [2]; with or without glucose (4.5 g L^−1) and with or without Cytochalasin B 50 μM) | IC50 values over the tested tumor cell lines [3] | Gold uptake in glucose‐ and Cytochalasin B‐free medium versus conditions with glucose, Cytochalasin B, or both (MCF‐7 cells [2]; not statistically significant) | Stability in PBS [4]
O=C(NC1C(O)OC(CO)C(O)C1O)C1CCN(C2=[S+][Au-]([Br])([Br])[S]2)CC1 (mixture of isomers) [Au3, [Au^IIIBr2(SSC‐Inp‐GlcN1)]] | > 50 | > 50 | > 50 | > 50 | – | – | – | –
CO[C@H]1O[C@H](CNC(=O)C2CCN(C3=[S+][Au-]([Br])([Br])[S]3)CC2)[C@@H](O)[C@H](O)[C@H]1O [Au5, [Au^IIIBr2(SSC‐Inp‐GlcN3)]] | > 50 | > 50 | > 50 | 18.8 ± 1.7 | – | – | – | –
NC(=O)C1CCN(C2=[S+][Au-]([Br])([Br])[S]2)CC1 [Au2, [Au^IIIBr2(SSC‐Inp‐NH2)]] | 8.9 ± 1.1 | 5.1 ± 1 | 20.1 ± 0.1 | 9.9 ± 0.8 | consistently similar cellular uptake values | low micromolar range | – | –
CO[C@H]1O[C@H](CO)[C@@H](O)[C@H](O)[C@H]1NC(=O)C1CCN(C(=S)[S][Au][PH](c2ccccc2)(c2ccccc2)c2ccccc2)CC1 [AuP4, [Au^I(SSC‐Inp‐GlcN2)(PPh3)]] | 2.4 ± 0.7 | 2.4 ± 0.4 | 6.3 ± 0.5 | – | – | – | – | –
NC(=O)C1CCN(C(=S)[S][Au][PH](c2ccccc2)(c2ccccc2)c2ccccc2)CC1 [AuP2, [Au^I(SSC‐Inp‐NH2)(PPh3)]] | 1.4 ± 0.3 | 1.3 ± 0.1 | 2.9 ± 0.7 | – | – | – | – | –
CCn1[c]([Au-][S]C(=S)N2CCC(C(=O)N[C@H]3[C@@H](OC)O[C@H](CO)[C@@H](O)[C@@H]3O)CC2)[n+](CC)c2ccccc21 [AuC4, [Au^I(SSC‐Inp‐GlcN2)(Et2BzImy)]] | 10.5 ± 0.4 | 10.3 ± 0.3 | 11.3 ± 0.4 | – | – | – | – | –
CCOC(=O)C1CCN(C(=S)[S][Au][PH](c2ccccc2)(c2ccccc2)c2ccccc2)CC1 [AuP1, [Au^I(SSC‐Inp‐OEt)(PPh3)]] | 0.6 ± 0.2 | 0.2 ± 0.1 | 0.5 ± 0.1 | – | – | – | – | –
O=C(NC1C(O)OC(CO)C(O)C1O)C1CCN(C(=S)[S][Au][PH](c2ccccc2)(c2ccccc2)c2ccccc2)CC1 (mixture of isomers) [AuP3, [Au^I(SSC‐Inp‐GlcN1)(PPh3)]] | 2.4 ± 0.8 | 2.6 ± 0.4 | 8.8 ± 1.6 | – | – | – | – | –
CCn1[c]([Au-][S]C(=S)N2CCC(C(N)=O)CC2)[n+](CC)c2ccccc21 [AuC2, [Au^I(SSC‐Inp‐NH2)(Et2BzImy)]] | 4.7 ± 0.3 | 4.9 ± 0.6 | 6.4 ± 1.3 | – | – | – | – | –
CCOC(=O)CN(C)C(=S)[S][Au]=[c]1n(CC)c2ccccc2n1CC [AuC1, [Au^I(SSC‐Sar‐OEt)(Et2BzImy)]] | 0.8 ± 0.1 | 0.5 ± 0.1 | 1 ± 0.1 | 0.6 ± 0.1 | – | – | – | –
CO[C@H]1O[C@H](CO)[C@@H](O)[C@H](O)[C@H]1NC(=O)C1CCN(C2=[S+][Au-]([Br])([Br])[S]2)CC1 [Au4, [Au^IIIBr2(SSC‐Inp‐GlcN2)]] | > 50 | > 50 | > 50 | 48.2 ± 13.2 | – | – | slightly higher | –
CCn1[c]([Au-][S]C(=S)N2CCC(C(=O)NC3C(O)OC(CO)C(O)C3O)CC2)[n+](CC)c2ccccc21 (mixture of isomers) [AuC3, [Au^I(SSC‐Inp‐GlcN1)(Et2BzImy)]] | 11.5 ± 0.6 | 12.3 ± 1.4 | 22.7 ± 1 | – | – | – | – | –
CCn1[c]([Au-][S]C(=S)N2CCC(C(=O)NC[C@H]3O[C@H](OC)[C@H](O)[C@@H](O)[C@@H]3O)CC2)[n+](CC)c2ccccc21 [AuC5, [Au^I(SSC‐Inp‐GlcN3)(Et2BzImy)]] | 9.6 ± 1.5 | 10.6 ± 0.6 | 11.8 ± 1.1 | – | – | – | – | major spectral changes occur soon after dissolution
CO[C@H]1O[C@H](CNC(=O)C2CCN(C(=S)[S][Au][PH](c3ccccc3)(c3ccccc3)c3ccccc3)CC2)[C@@H](O)[C@H](O)[C@H]1O [AuP5, [Au^I(SSC‐Inp‐GlcN3)(PPh3)]] | 2.5 ± 0.5 | 2.5 ± 0.4 | 6.7 ± 1.1 | – | – | – | – | –
CCOC(=O)C1CCN(C2=[S+][Au-]([Br])([Br])[S]2)CC1 [Au1, [Au^IIIBr2(SSC‐Inp‐OEt)]] | 1.4 ± 0.2 | 0.8 ± 0.1 | 1.2 ± 0.2 | 0.6 ± 0.1 | – | low micromolar range | – | –

— PMC12631006, “Gold‐Dithiocarbamato Glycoconjugates as Potential Anticancer Agents: Design, Physico‐Chemical Characterization, and In Vitro Biological Activity” (Chembiochem, 2025)
